For data set [1] the following is noted: cited from earlier work; for adverse reactions: clinical / reported in the literature.
A short description of data set [2]: Rat lymph absorption test (lymph cannulation method, HPLC). The data set is classed as in vivo. Particulars: SD rats, 12-week old; 5 mg/kg indometacin farnesyl orally, formulated with the named additive. How it is done: In this test, 5 mg/kg of indometacin farnesyl was orally administered to SD rats (12-week old) and indometacin farnesyl in the lymphatic vessels was determined according to HPLC by the lymph cannulation method.

The conditions of data set [3]: beagle; 200 mg indometacin farnesyl orally, formulated with the named additive. The method, then:
In this test, the crossover method was employed by using six female beagles with the administration of 200 mg of indometacin farnesyl orally to each of them 30 min after breakfast, and sampling their blood at intervals to determine the concentration of indometacin farnesyl in their blood according to HPLC.
Six female beagles were used to determine indometacin farnesyl in the blood by the crossover method.
In the test, each sample was orally administered 30 min after breakfast and 2.5 ml of blood was sampled at intervals to determine the concentration of indometacin farnesyl under the HPLC conditions which will be described below.
The maximum blood concentration, Cmax (μg/ml), and the area under the blood concentration-time curve, AUC (μg hr/ml), 6 h after the administration of each of samples A to F were determined and expressed in terms of relative value with respect to those of a standard formulation.
stationary phase: Nucleosil®10 C18, 4.6 mm diameter×150mm
mobile phase: methanol/water (300/16)

Molecules are shown by their SMILES.

Regarding `COc1ccc2c(c1)c(CC(=O)O)c(C)n2C(=O)c1ccc(Cl)cc1` [indometacin], the adverse reactions entry in data set [1] was “various adverse reactions such as gastrointestinal or renal disturbances”.

On to `CCCCC/C=C\C/C=C\CCCCCCCC(=O)O` [linolic acid], for which, in data set [2], the “absorption of indometacin farnesyl into lymph (in words)” value is “particularly excellent absorption”. The “absorption of indometacin farnesyl (in words)” value in data set [3] is recorded as “particularly excellent absorption”.

For the compound `COc1ccc2c(c1)c(CC(=O)OCC=C(C)CC/C=C(\C)CCC=C(C)C)c(C)n2C(=O)c1ccc(Cl)cc1` [indomethacin farnesyl, (6E)-3,7,11-trimethyl-2,6,10-dodecatrienyl 1-(p-chlorobenzoyl)-5-methoxy-2-methyl-lH-indole-3-acetate], the adverse reactions entry in data set [1] is reported as “only slight adverse reactions”. For the same compound, the antiinflammatory effect result in data set [1] (prior art statement) is recorded as “long-lasting antiinflammatory”.

Regarding `CCCCCCCC/C=C\CCCCCCCC(=O)O` [oleic acid], the “absorption of indometacin farnesyl (in words)” value in data set [3] was “particularly excellent absorption”.
